Source: patent US20230390386A1, “REPLICATION-DEFECTIVE VACCINES AND USES THEREOF” (priority 2020, published 2023)

How the values were obtained:
[1] = system: ToledoLuc strain of HCMV; experiment: ToledoLuc growth curve in MRC-5 cells after CM treatment of virus (bioluminescence); type: cell-based, human cytomegalovirus
Description: ToledoLuc treatment with CM: The human cytomegalovirus (HCMV) strain ToledoLuc, which contains a luciferase expression cassette, was used in this study and well-known to those of skill in the art. Cells of the MRC-5 human diploid fibroblast line were seeded into 12-well plates. […] After 2 hours of treatment with CM, ToledoLuc viruses were washed 3 times with cDMEM and added to MRC-5 cells at an MOI of 0.05 in triplicate wells. The control includes the ToledoLuc treated with the PET vehicle in a similar way. The growth kinetics of ToledoLuc was determined by bioluminescence assay. The luciferase activity of ToledoLuc virus was measured every 24 hours using IVIS-50.
In the present example, the effect of CM treatment on the HCMV was first examined using the modified ToledoLuc strain of HCMV. ToledoLuc was treated with different concentrations of CM for two hours at room temperature, washed to remove unbound CM and then allowed to grow in the MRCS cells.

[2] = system: MCMV-Luc; experiment: MCMV-Luc growth curve in NIH 3T3 cells after CM treatment; type: cell-based, mouse cytomegalovirus; conditions: two hours at RT, MOI 0.1
Description: Previous studies in the current disclosure had been conducted in vitro. […] This study would identify a CM concentration required to attenuate the MCMV. For this assay, a luciferase-expressing version of MCMV, MCMV-Luc was used, and viral growth was measured as photon counts during intravital imaging using an in vivo imaging system (IVIS). The MCMV-Luc was treated with different concentrations of CM at RT for two hours and then added to NIH 3T3 cells established in 24 well plates in triplicate at a multiplicity of infection (MOI) of 0.1. The MCMV growth curve was determined by measuring the luciferase expression every 24 h using IVIS. […] This information was used to perform In vivo analysis of CM effect on the MCMV replication in the mice.

[3] = system: MCMV-Luc; experiment: In vivo analysis of CM treated MCMV-Luc injected into mice (IVIS); conditions: 1×10^5 pfu intraperitoneally
Description: In vivo experiments: To check the efficacy of CM in the animal model, mouse cytomegalovirus expressing the luciferase gene (MCMVLuc) was used. […] The 25×10^6 PFU/ml of MCMVLuc viruses were treated with 10 μM, 1.0 μM, and 0.1 μM of CM for two hours at room temperature. The MCMVLuc viruses were washed with RPMI to remove CM and suspended in 1 ml of incomplete RPMI. Thereafter, 200 μl of the CM treated MCMVLuc was injected into five mice per group. The luciferase activity was measured every other day using bioluminescence assay by an in vivo imaging system (IVIS). Briefly, the mice were anesthetized using isoflurane and injected with the luciferin substrate. The injected mice were incubated at RT for five minutes and luciferase activity was determined using IVIS. In control experiments, the MCMVLuc viruses were treated with PET only and followed in a similar way as described above.
The MCMV-Luc virus was purified using a sucrose gradient and titrated. Following purification, 5×10^5 pfu of MCMV-Luc was treated with 10 μM, 1 μM and 0.1 μM of CM for 2 hours at RT. Thereafter, treated 1×10^5 pfu were injected intraperitoneally into five mice for each concentration. […] During this attenuated infection, the mouse immune system had sufficient time to recognize the virus as a foreign antigen and generate antibodies specific for the virus. Moreover, since the attenuated MCMV-Luc was whole viral particles, they contained all possible antigens relevant to priming a protective humeral response. As expected, the MCMV-Luc viral particles that were not treated with CM treatment replicated rapidly in the host mice, as observed by IVIS imaging in FIG. 4B.

[4] = system: E. coli; experiment: CM treatment of E. coli, colony count on LB agar plates; type: cell-based; conditions: three hours at room temperature
Description: CM treatment of E. coli: Overnight cultures of E. coli culture were diluted 200 times in LB media to make final volume of 1 ml and treated with different concentrations (100 μM, 10 μM, 1 μM, and 0.1 μM) of centanamycin for three hours at room temperature. The treated E. coli cells were then centrifuged at 10,000 rpm for 1 min, supernatant was removed and the pellet was resuspended in 100 μl of LB and plated on the LB agar plate without any antibiotic. The plates were then incubated at 37° C. for 16 hours. To determine the effect of centanamycin, the number of colonies were counted on each plate.
First, a culture of E. coli that had been established by an overnight incubation was diluted 200 times in LB media to make final volume to be 1 ml, followed by treatment with different concentrations of centanamycin (100 μM, 10 μM, 1 μM, and 0.1 μM) for three hours at room temperature. The treated cells were then centrifuged at 10,000 rpm for 1 min, supernatant was removed and the pellet was resuspended in 100 μl of LB and plated on LB agar plates without any antibiotic. The plates were then incubated at 37° C. for 16 hours. To determine the effect of centanamycin, the number of colonies on each plate were counted (FIGS. 6A-6B). […] Some of these bacteria were replication-defective and attenuated, making them suitable for use as vaccines.

[5] = system: E. coli; experiment: E. coli growth assay (OD) after CM treatment; type: cell-based; conditions: two hours at RT
Description: […] Replicate samples were performed in triplicate. The treated bacterial cells were then added to 96 well, round-bottom plates, which were then incubated at 37° C. in a shaking incubator. The bacterial OD was measured in Glomax Explorer (Promega) every hour to determine the bacterial growth.
In order to observe the effect of CM on the rate of bacterial growth, a series of studies were conducting observing cultures of treated E. coli (FIG. 7). […] Each treatment condition was repeated in triplicate. The treated E. coli were then added to 96 well round-bottom plates, and cultured at 37° C. in a shaking incubator. The bacterial OD was measured by a Glomax Explorer (Promega) every hour to determine the rate bacterial growth. […] Each data point on the graph in FIG. 7 represents the average of three separate measurements.

`COc1cc2cc(C(=O)Nc3cc(N)c4ccccc4c3CCCl)[nH]c2c(OC)c1OC` [CM, centanamycin] was tested, and the “ToledoLuc infection and replication (luciferase activity)” value (“ToledoLuc infection and replication” below) ([1]; virus treated with 0.01 μM-0.001 μM CM) was “allows the virus to grow and replicate in the infected cells”, the “ToledoLuc infection and replication” value ([1]; virus treated with 0.1 μM CM, 2 hours at RT) was “allow the virus to infect the cells but did not replicate” and the “ToledoLuc infection and replication” value ([1]; virus treated with 1 μM CM, 2 hours at RT, MRC5 cells, 9 days post-infection) was “did not grow and was replication-defective”. For the same compound, the “ToledoLuc infection and replication” value ([1]; virus treated with 10 μM CM, 2 hours at RT, MRC5 cells) was “neither replicate nor infects the cells”, the “ToledoLuc infection and replication” value ([1]; virus treated with 100 μM CM, 2 hours at RT, MRC5 cells) was “neither replicate nor infects the cells” and the “MCMV-Luc infection and replication (luciferase expression)” value ([2]; virus treated with 0.01 μM CM) was “able to grow and replicate but slower than untreated”. For the same compound, the “MCMV-Luc infection and replication (luciferase expression)” value ([2]; virus treated with 1.0 μM CM) was “allowed the virus to infect host cells but not replicate”, the “MCMV-Luc infection and replication (luciferase expression)” value ([2]; virus treated with 10 μM CM) was “did not allow the MCMV-Luc to infect the cells” and the “MCMV-Luc infection and replication in mice (IVIS)” value ([3]; virus treated with 0.1 μM CM) was “able to infect the mice but did not replicate further from the site of infection”. For the same compound, the “MCMV-Luc infection and replication in mice (IVIS)” value ([3]; virus treated with 1 μM CM) was “able to infect the mice but did not replicate further from the site of infection”, the “MCMV-Luc infection and replication in mice (IVIS)” value ([3]; virus treated with 10 μM CM) was “did not infect the mice” and the “E. coli colonies on LB agar plate after 16 hours” value (“E. coli colonies on LB agar plate” for short) ([4]; 0.1 μM) was “reduce the number of bacterial colonies on the agar plate in a dose dependent manner”. The “E. coli colonies on LB agar plate” value ([4]; 1 μM) was “reduce the number of bacterial colonies on the agar plate in a dose dependent manner”, the “E. coli colonies on LB agar plate” value ([4]; 10 μM) was “reduce the number of bacterial colonies on the agar plate in a dose dependent manner” and the “E. coli colonies on LB agar plate” value ([4]; 100 μM) was “did not grow on the LB agar plate”. For the same compound, the “E. coli growth in culture (OD)” value ([5]; 0.01 μM CM) was “able to grow slowly in the culture”, the “E. coli growth in culture (OD)” value ([5]; 0.1 μM CM) was “able to grow slowly in the culture” and the “E. coli growth in culture (OD)” value ([5]; 10 μM CM) was “did not grow”. For the same compound, the “E. coli growth in culture (OD)” value ([5]; 100 μM CM) was “did not grow in the culture”.
